Data: article PMC8998827, “Ligandability Assessment of Human Glutathione Transferase M1-1 Using Pesticides as Chemical Probes” (International Journal of Molecular Sciences, 2022)

Target: T1, hGSTM1-1 (Homo sapiens, UniProt P09488)
T1 sequence (P09488 1-218): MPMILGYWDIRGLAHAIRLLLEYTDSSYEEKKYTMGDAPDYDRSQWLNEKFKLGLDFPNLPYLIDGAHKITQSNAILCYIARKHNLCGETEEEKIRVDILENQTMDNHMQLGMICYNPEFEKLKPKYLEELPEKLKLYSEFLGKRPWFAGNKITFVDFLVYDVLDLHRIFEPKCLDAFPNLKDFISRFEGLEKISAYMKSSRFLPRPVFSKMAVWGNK
Assay: biochemical
Conditions: not given
Excerpt: Furthermore, the catalytic activity of hGSTM1-1 cannot be regained by extensive dialysis or gel filtration on Sephadex G-25. […] The Kapp calculated by inactivation experiments is in good agreement to that determined by kinetic inhibition analysis.
The rate of inactivation was followed by periodically removing samples for assays of enzymatic activity.

Compound | Kd
Cc1nc(N(C)C)nc(OC(=O)N(C)C)c1C [Pirimicarb, pirimicarb] | 15.5 ± 1.2 µM

Same assay, conditions: pH 7.4

Compound | Effect on inactivation of hGSTM1-1 by GS-ESF
Cc1nc(N(C)C)nc(OC(=O)N(C)C)c1C [Pirimicarb, pirimicarb] | diminish the observed rate of enzyme inactivation
N[C@@H](CCC(=O)N[C@@H](CSCc1ccc([N+](=O)[O-])cc1)C(=O)NCC(=O)O)C(=O)O [S-nitrobenzyl-GSH, S-nitrobenzyl-glutathione] | diminish the observed rate of enzyme inactivation

Target: T1, hGSTM1-1
Assay: Kinetic inhibition study with pirimicarb (Lineweaver-Burk and secondary plots)
Assay type: biochemical
Design: made in house; host or cells: E. coli
Conditions: CDNB as variable substrate; 37 °C, pH 6.5; 1/Vmax app versus [Pirimicarb]
Protocol: Initial velocities for the catalyzed reaction of the isoenzyme hGSTM1-1 with GSH as a variable substrate were performed at 37 °C in a total volume of 1 mL mixture containing 0.75 μg of the isoenzyme GSTM1-1, 0.1 M potassium phosphate buffer (pH 6.5), 1 mM CDNB and different concentrations of GSH in the range of 0.0175–3.75 mM in the presence of different concentrations of the insecticide pirimicarb (0–40 μM). With CDNB as a variable substrate, the reaction mixture total volume (1 mL) contained 0.75 μg of the isoenzyme GSTM1-1, 0.1 M potassium phosphate buffer (pH 6.5), 1 mM GSH and CDNB in the concentration range of 0.015–1.5 mM in the presence of different concentrations of pirimicarb (0–30 μM). The kinetic parameters were determined using the computer program GraphPad Prism 7.

Compound | Ki' (binding to enzyme-CDNB complex)
Cc1nc(N(C)C)nc(OC(=O)N(C)C)c1C [Pirimicarb, pirimicarb] | 44.7 ± 1.14 µM

Same assay, conditions: GSH as variable substrate

Compound | Inhibition pattern
Cc1nc(N(C)C)nc(OC(=O)N(C)C)c1C [Pirimicarb, pirimicarb] | mixed-type inhibition

Same assay, conditions: GSH as variable substrate; 37 °C, pH 6.5

Compound | Ki' (binding to enzyme-GSH complex)
Cc1nc(N(C)C)nc(OC(=O)N(C)C)c1C [Pirimicarb, pirimicarb] | 35.97 ± 2.57 µM

Same assay, conditions: Ki (binding to free enzyme), CDNB as variable substrate; 37 °C, pH 6.5; Slope versus [Pirimicarb]

Compound | Ki
Cc1nc(N(C)C)nc(OC(=O)N(C)C)c1C [Pirimicarb, pirimicarb] | 37.7 ± 1.03 µM

Same assay, conditions: Ki (binding to free enzyme), GSH as variable substrate; 37 °C, pH 6.5

Compound | Ki
Cc1nc(N(C)C)nc(OC(=O)N(C)C)c1C [Pirimicarb, pirimicarb] | 24.5 ± 2.86 µM

Same assay, conditions: towards CDNB

Compound | Inhibition pattern
Cc1nc(N(C)C)nc(OC(=O)N(C)C)c1C [Pirimicarb, pirimicarb] | mixed-type inhibition

Target: T1, hGSTM1-1
Assay: IC50 determination, concentration-response in CDNB-GSH assay
Assay type: biochemical
Design: made in house; host or cells: E. coli
Conditions: not given
Protocol: (§1) Reduced GST assays were performed by monitoring the formation of the conjugate of CDNB (1 mM) with GSH (2.5 mM) at 340 nm (ε = 9.6 mM^−1cm^−1) for 120 s according to a published method. One unit of enzyme activity is defined as the amount of enzyme that produces 1 μmol of product per minute under the assay conditions.
[…]. The IC50 values were determined using the program GraphPad Prism (GraphPad Software Inc., Version 7, San Diego, CA, USA).

Compound | IC50
Cc1nc(N(C)C)nc(OC(=O)N(C)C)c1C [Pirimicarb, pirimicarb] | 17.5 ± 1.75 µM

Same assay, conditions: 37 °C, pH 6.5; CDNB-GSH assay; read-out: IC50

Compound | IC50
CCCCOCN(C(=O)CCl)c1c(CC)cccc1CC [Butachlor, butachlor] | 236 ± 4.5 µM
CC1(C(=O)Nc2ccc(O)c(Cl)c2Cl)CCCCC1 [Fenhexamid, fenhexamid] | 278 ± 14.5 µM

Target: T1, hGSTM1-1
Assay: biochemical
Design: made in house; host or cells: E. coli
Conditions: not given
Remark: another data set of the same source
Protocol: as §1
Pesticide screening and inhibition potency evaluation towards hGSTM1-1 were carried out in the assay system described above in the presence of 25 μM pesticide diluted in acetone. During the assay, no measurable pesticide/GSH reaction was detected. The percentage of enzyme inhibition (I) was calculated using the following equation:%I = [(Ro − Ri)/Ro] × 100(3) where Ro is the unit of enzyme activity increase for the uninhibited reaction and Ri is the rate of increase for the inhibited reaction. Both Ri and Ro correspond to the same substrate concentration.

Compound | inhibition at 25 µM
CNC(=O)Oc1cccc2ccccc12 [Carbaryl] | 0%
CN/C(=N\[N+](=O)[O-])NCc1cnc(Cl)s1 [Clothianidin] | 0%
CNC(=O)CSP(=O)(OC)OC [Omethoate] | 3.21%
N#C/N=C1\SCCN1Cc1ccc(Cl)nc1 [Thiacloprid] | 10.7%
COP(=S)(OC)Oc1c(Cl)cc(C)cc1Cl [Tolclofos-methyl] | 9.32%

Same assay, conditions: 25 μM pesticide; CDNB (1 mM)-GSH (2.5 mM) assay; mean of three assays, variation less than 5%

Compound | Inhibition (%)
COC(=O)Nc1nc2ccccc2[nH]1 [Carbedazim] | 8.00%
COP(=O)(OC)OC=C(Cl)Cl [Dichloros] | 1.48%
CCO[PH](=O)O [Fosetyl-Al] | 0.66%
C#CCOc1ccc(CCNC(=O)C(OCC#C)c2ccc(Cl)cc2)cc1OC (stereo not drawn) [Mandipropamid] | 21.47%
CO/C=C(/C(=O)OC)c1ccccc1COc1cccc(C(F)(F)F)n1 [Picoxystrobin] | 10.56%
CCC(C)(C)C(=O)OC1=C(c2ccc(Cl)cc2Cl)C(=O)OC12CCCCC2 [Spirodiclofen] | 10.20%
Cc1cc(C)c(C2=C(OC(=O)CC(C)(C)C)C3(CCCC3)OC2=O)c(C)c1 [Spiromesifen] | 1.27%
O=S1OC[C@@H]2[C@H](CO1)[C@@]1(Cl)C(Cl)=C(Cl)[C@]2(Cl)C1(Cl)Cl (stereo partly drawn) [alpha Endosulfan] | 16.66%
Imidachlor | 10.14%
Spinosad | 0%

Same assay, conditions: 25 μM pesticide; CDNB (1 mM)-GSH (2.5 mM) assay; mean of three assays, variation less than 5%; read-out: Inhibition (%)

Compound | inhibition at 25 µM
CC1(C)[C@H](C(=O)O[C@H](C#N)c2cccc(Oc3ccccc3)c2)[C@@H]1/C=C(\Cl)C(F)(F)F (racemic) [Lambda-Cyhalothrin] | 0%
CCOCN(C(=O)CCl)c1c(C)cccc1CC [Acetochlor, acetochlor] | 13.8%
CCc1cccc(CC)c1N(COC)C(=O)CCl [Alachlor, alachlor] | 32%
CC1(C)C(C=C(Cl)Cl)C1C(=O)OC(C#N)c1cccc(Oc2ccccc2)c1 (stereo not drawn) [Alpha cypermethrin] | 0%
CCNc1nc(Cl)nc(NC(C)C)n1 [Atrazine] | 28.7%
O=C(Nc1ccccc1-c1ccc(Cl)cc1)c1cccnc1Cl [Boscalid] | 20.4%
CCCCOCN(C(=O)CCl)c1c(CC)cccc1CC [Butachlor, butachlor] | 35.3%
CNC(=O)Oc1cccc2c1OC(C)(C)C2 [Carbofuran] | 0%
CCOP(=S)(OCC)Oc1nc(Cl)c(Cl)cc1Cl [Chlorpyrifos] | 0%
CC1(C)[C@H](C(=O)O[C@H](C#N)c2cccc(Oc3ccccc3)c2)[C@@H]1C=C(Br)Br [Deltamethrin] | 0%
CCOC(=O)Nc1cccc(OC(=O)Nc2ccccc2)c1 [Desmedipham] | 0%
O=C(NC(=O)c1c(F)cccc1F)Nc1ccc(Cl)cc1 [Diflubenzuron] | 0%
CN(C)C(=O)Nc1ccc(Cl)c(Cl)c1 [Diuron] | 15%
O=S1OCC2C(CO1)C1(Cl)C(Cl)=C(Cl)C2(Cl)C1(Cl)Cl (stereo not drawn) [Endosulfan] | 14.7%
CSC1=N[C@@](C)(c2ccccc2)C(=O)N1Nc1ccccc1 [Fenamidone] | 0%
CC1(C(=O)Nc2ccc(O)c(Cl)c2Cl)CCCCC1 [Fenhexamid, fenhexamid] | 35.3%
CC(C)C(C(=O)OC(C#N)c1cccc(Oc2ccccc2)c1)c1ccc(Cl)cc1 (stereo not drawn) [Fenvalerate] | 0%
O=[N+]([O-])c1ccc(Oc2ccc(C(F)(F)F)cc2[N+](=O)[O-])cc1 [Fluorodifen] | 16.7%
CO/N=C(/C1=NOCCO1)c1ccccc1Oc1ncnc(Oc2ccccc2Cl)c1F [Fluoxastrobin] | 18.5%
O=[N+]([O-])NC1=NCCN1Cc1ccc(Cl)nc1 [Imidacloprid] | 0%
CC(C)NC(=O)N1CC(=O)N(c2cc(Cl)cc(Cl)c2)C1=O [Iprodione] | 19.5%

Compound | inhibition at 25 µM
CO/N=C(/C(=O)OC)c1ccccc1COc1ccccc1C [Kresoxim-methyl] | 14.5%
Cl[C@H]1[C@H](Cl)[C@@H](Cl)[C@@H](Cl)[C@H](Cl)[C@H]1Cl [Lindane] | 13%
CCOC(=O)CC(SP(=S)(OC)OC)C(=O)OCC (stereo not drawn) [Malathion, malathion] | 12.7%
COCC(=O)N(c1c(C)cccc1C)C(C)C(=O)OC (stereo not drawn) [Metalaxyl] | 19.8%
Cc1cccc(C)c1N(Cn1cccn1)C(=O)CCl [Metazachlor, metazachlor] | 19.7%
CNC(=O)ON=C(C)SC [Methomyl] | 20%
CCc1cccc(C)c1N(C(=O)CCl)C(C)COC (stereo not drawn) [Metolachlor] | 9.2%
CC1(C)C(C=C(Cl)Cl)C1C(=O)OCc1cccc(Oc2ccccc2)c1 (stereo not drawn) [Permethrin] | 11.2%
COC(=O)Nc1cccc(OC(=O)Nc2cccc(C)c2)c1 [Phenmedipham] | 16%
Cc1nc(N(C)C)nc(OC(=O)N(C)C)c1C [Pirimicarb, pirimicarb] | 52.3%
CC(C)N(C(=O)CCl)c1ccccc1 [Propachlor, propachlor] | 11.2%
OC(Cc1ccccc1Cl)(Cn1nc[nH]c1=S)C1(Cl)CC1 (stereo not drawn) [Prothioconazole] | 26.5%
Cc1cc(C)nc(Nc2ccccc2)n1 [Pyrimethanil] | 7.49%
CCOC(=O)OC1=C(c2cc(C)ccc2C)C(=O)N[C@]12CC[C@@H](OC)CC2 [Spirotetramat] | 29.3%
O=C(NC(=O)c1c(F)cccc1F)Nc1cc(Cl)c(F)c(Cl)c1F [Teflubenzuron] | 11.2%
CCNc1nc(Cl)nc(NC(C)(C)C)n1 [Terbuthylazine] | 12%
CC(C)(C)C(O)C(Oc1ccc(Cl)cc1)n1cncn1 (stereo not drawn) [Triadimenol] | 0%
CON=C(C(=O)OC)c1ccccc1CON=C(C)c1cccc(C(F)(F)F)c1 [Trifloxystrobin] | 2.88%
O=C(NC(=O)c1ccccc1Cl)Nc1ccc(OC(F)(F)F)cc1 [Triflumuron] | 22.7%
C=CC1(C)OC(=O)N(c2cc(Cl)cc(Cl)c2)C1=O (stereo not drawn) [Vinclozolin] | 14.3%
CCC(C)(NC(=O)c1cc(Cl)c(C)c(Cl)c1)C(=O)CCl (stereo not drawn) [Zoxamide] | 20%
